The values that follow come from ChEMBL document CHEMBL4513135, “CO-ADD screening of IQOG CSIS (Spain) compounds”.

The subject of test [1] is HEK293. Kind of test: cells. In kind it is functional. As to conditions: Homo sapiens, ATCC CRL1573, HEK293; ASSAY_TEST Inhibition of Cell Viability; detection method Resazurin; Fluorescence (ex560/em590); MEDIA DMEM with 10% FBS; plate type 384well; TC; CORNING #3712; time 18 hr.
In test [2] the test system is Cryptococcus neoformans.
Test [3] concerns Staphylococcus aureus. Kind of test: microbe, parasite or virus in culture. As to conditions: ATCC 43300, 18 h, ASSAY_TEST Inhibition of Bacterial Growth, detection method Absorption (OD600), MEDIA CAMHB, plate type 384well, NBS, CORNING #3640.
Test [4] has as its system Escherichia coli. Kind of test: microbe, parasite or virus in culture. The note with it: ATCC 25922, 18 h, ASSAY_TEST Inhibition of Bacterial Growth, detection method Absorption (OD600), MEDIA CAMHB, plate type 384well, NBS, CORNING #3640.
The subject of test [5] is Klebsiella pneumoniae. Description: microbe, parasite or virus in culture. As to conditions: ATCC 700603, 18 h, ASSAY_TEST Inhibition of Bacterial Growth, detection method Absorption (OD600), MEDIA CAMHB, plate type 384well, NBS, CORNING #3640.
Test [6] relates to Pseudomonas aeruginosa. Kind of test: microbe, parasite or virus in culture. The note with it: ATCC 27853, 18 h, ASSAY_TEST Inhibition of Bacterial Growth, detection method Absorption (OD600), MEDIA CAMHB, plate type 384well, NBS, CORNING #3640.
The subject of test [7] is Acinetobacter baumannii. Description: microbe, parasite or virus in culture. As to conditions: ATCC 19606, 18 h, ASSAY_TEST Inhibition of Bacterial Growth, detection method Absorption (OD600), MEDIA CAMHB, plate type 384well, NBS, CORNING #3640.
Test [8] deals with Candida albicans. Kind of test: microbe, parasite or virus in culture. The note with it: ATCC 90028, ASSAY_TEST Inhibition of Fungal Growth, detection method Absorption (OD530), plate type 384well, NBS, CORNING #3640.

Converted amounts (≈) assume the structure as drawn.

The CC50 is the concentration giving 50% cytotoxicity. A low value points to harm at low concentration. Turning to `CC1=C(C(=O)OC(C)(C)C)C(c2ccccc2)C(C#N)=C(N)O1` (centres undefined), in test [1], the CC50 is > 32 µg/mL. Further, the MIC in test [2], in test [3], in test [4], in test [5], in test [6] and in test [7] was > 32 µg/mL throughout. The compound also gave an MIC in test [8] of 32 µg/mL (≈ 102 µM).
For the compound `COc1ccc(OC)c2nc(Cl)c(C=O)cc12`, the 50% cytotoxic concentration (CC50) in test [1] was > 32 µg/mL. Moreover, the MIC in test [2], in test [3], in test [4], in test [5], in test [6] and in test [7] was > 32 µg/mL each time. In addition, the MIC in test [8] was > 32 µg/mL.
For `CCOC(=O)C1=C(C)OC(N)=C(C#N)C1c1ccc(Cl)cc1` (centres undefined), the CC50 in test [1] is > 32 µg/mL. The MIC in test [2], in test [3], in test [4], in test [5], in test [6] and in test [7] was > 32 µg/mL throughout. In addition, the MIC in test [8] was determined as 32 µg/mL (≈ 100 µM).
In the case of `CCOC(=O)C1=C(C)Nc2nc3c(c(N)c2C1c1ccccc1OC)CCCC3.Cl` (centres undefined), the MIC was 32 µg/mL in test [3]; > 32 µg/mL in test [4]; > 32 µg/mL in test [5]; > 32 µg/mL in test [6]; > 32 µg/mL in test [7]; > 32 µg/mL in test [8].
For `N#CC(C#N)=Cc1cccc([N+](=O)[O-])c1`, in test [1], the CC50 is > 32 µg/mL. Besides, the MIC in test [2] is > 32 µg/mL; in test [3], > 32 µg/mL; in test [4], > 32 µg/mL; in test [5], > 32 µg/mL; in test [6], 32 µg/mL (≈ 161 µM); in test [7] it was > 32 µg/mL. Moreover, the MIC in test [8] is > 32 µg/mL.
Turning to `C#CCNc1nc(NCCC2CCN(Cc3ccccc3)CC2)c(C#N)c(-c2ccccc2)c1C#N`, the CC50 in test [1] was found to be 11.3 µg/mL (≈ 23.8 µM). Further, the MIC in test [2], in test [3], in test [4], in test [5], in test [6] and in test [7] was > 32 µg/mL each time. The MIC in test [8] was > 32 µg/mL.
Take `C#CCN(C)Cc1cc2cc(OCCCC3CCNCC3)ccc2n1C.C#CCN(C)Cc1cc2cc(OCCCC3CCNCC3)ccc2n1C.Cl.Cl.Cl.Cl.O`: the CC50 in test [1] came out at 17.2 µg/mL. The MIC in test [2], in test [3], in test [4], in test [5], in test [6] and in test [7] was > 32 µg/mL throughout. In test [8], the MIC is > 32 µg/mL.
As for `COc1ccc2[nH]c3nc4c(c(N)c3c2c1)CCCC4`, half-maximal cytotoxicity in test [1] (CC50) was put at 15 µg/mL (≈ 56.1 µM). Besides, the MIC is 32 µg/mL (≈ 120 µM) in test [2]; > 32 µg/mL in test [3]; > 32 µg/mL in test [4]; > 32 µg/mL in test [5]; 32 µg/mL (≈ 120 µM) in test [6]; > 32 µg/mL in test [7]. Further, the MIC in test [8] is > 32 µg/mL.
Take `Cn1ccnc1C1c2c(nc3c(c2N)CCCCC3)Oc2ccc3ccccc3c21` (centres undefined): the cytotoxic concentration (CC50) in test [1] was > 32 µg/mL. The MIC in test [2], in test [3], in test [4], in test [5], in test [6] and in test [7] was > 32 µg/mL each time. Besides, the MIC in test [8] is > 32 µg/mL.
In the case of `C#CCN(C)c1nc(NCCCC2CCN(Cc3ccccc3)CC2)c(C#N)c(-c2ccccc2)c1C#N.Cl`, the CC50 in test [1] came out at 8.06 µg/mL. The MIC was 32 µg/mL in test [2]; > 32 µg/mL in test [3]; > 32 µg/mL in test [4]; > 32 µg/mL in test [5]; > 32 µg/mL in test [6]; > 32 µg/mL in test [7]. Besides, in test [8], the MIC is > 32 µg/mL.
In turn, `C#CCN(C)c1nc(NCCCCC2CCN(Cc3ccccc3)CC2)c(C#N)c(-c2ccccc2)c1C#N` gave a CC50 in test [1] of 3.73 µg/mL (≈ 7.22 µM). For the same compound, the MIC was 8 µg/mL (≈ 15.5 µM) in test [2]; > 32 µg/mL in test [3]; > 32 µg/mL in test [4]; > 32 µg/mL in test [5]; > 32 µg/mL in test [6]; > 32 µg/mL in test [7]. The compound also displayed an MIC in test [8] of 32 µg/mL (≈ 61.9 µM).
With `N#Cc1c(N)nc(Sc2ccccc2)c(C#N)c1-c1ccccc1`, in test [1], the CC50 was > 32 µg/mL. Besides, the MIC in test [2], in test [3], in test [4], in test [5], in test [6] and in test [7] was > 32 µg/mL in each case. In addition, in test [8], the MIC is > 32 µg/mL.
In turn, `Cl.Nc1c2c(nc3[nH]c4ccccc4c13)CCCC2` showed a 50% cytotoxic concentration (CC50) in test [1] of 4.74 µg/mL. Besides, the MIC in test [2] was > 32 µg/mL; in test [3], > 32 µg/mL; in test [4] it was > 32 µg/mL; in test [5], > 32 µg/mL; in test [6], 16 µg/mL; in test [7], > 32 µg/mL. Moreover, in test [8], the MIC was > 32 µg/mL.
In test [1], `N#CC1=C(N)Oc2ccc3ccccc3c2C1c1ccc([N+](=O)[O-])cc1` (centres undefined) came in with a half-maximal cytotoxic concentration (CC50) of 1.88 µg/mL (≈ 5.48 µM). In addition, the MIC in test [2], in test [3], in test [4], in test [5], in test [6] and in test [7] was > 32 µg/mL in each case. For the same compound, in test [8], the MIC was > 32 µg/mL.
For `CCOC(=O)C1=C(C)Nc2nc3c(c(N)c2C1c1ccccc1OC)CCCC3` (centres undefined), the MIC in test [2] is > 32 µg/mL; in test [3], 32 µg/mL (≈ 81.3 µM); in test [4], > 32 µg/mL; in test [5], > 32 µg/mL; in test [6], > 32 µg/mL; in test [7], > 32 µg/mL. Besides, the MIC in test [8] is > 32 µg/mL.
For the compound `C#CCN(C)Cc1cc2cc(OCCCCC3CCN(Cc4ccccc4)CC3)ccc2n1C.Cl`, the CC50 in test [1] was > 32 µg/mL. For the same compound, the MIC in test [2], in test [3], in test [4], in test [5], in test [6] and in test [7] was > 32 µg/mL each time. Besides, in test [8], the MIC is > 32 µg/mL.
Compound `N#CC1=C(N)Oc2c(ccc3ccccc23)C1c1ccc([N+](=O)[O-])cc1` (centres undefined) displayed a CC50 in test [1] of 0.259 µg/mL (≈ 0.754 µM). Besides, the MIC in test [2], in test [3], in test [4], in test [5], in test [6] and in test [7] was > 32 µg/mL each time. The MIC in test [8] is > 32 µg/mL.
In test [1], `C#CCN(C)c1nc(NCCCCC2CCN(Cc3ccccc3)CC2)c(C#N)c(-c2ccccc2)c1C#N.Cl` had a half-maximal cytotoxic concentration (CC50) of 4.12 µg/mL. Further, the MIC in test [2] was 16 µg/mL; in test [3] it was > 32 µg/mL; in test [4] it was > 32 µg/mL; in test [5] it was > 32 µg/mL; in test [6], > 32 µg/mL; in test [7] it was > 32 µg/mL. Moreover, in test [8], the MIC is > 32 µg/mL.
As for `N#Cc1c(NCCC2CCN(Cc3ccccc3)CC2)nc(NCCC2CCN(Cc3ccccc3)CC2)c(C#N)c1-c1ccccc1`, the cytotoxic concentration (CC50) in test [1] is > 32 µg/mL. For the same compound, the MIC in test [2], in test [3], in test [4], in test [5], in test [6] and in test [7] was > 32 µg/mL throughout. Further, the MIC in test [8] was > 32 µg/mL.
As to `C#CCN(C)Cc1cc2cc(OCc3ccccc3)ccc2[nH]1.O=C(O)C(=O)O`, in test [1], the cytotoxic concentration (CC50) is > 32 µg/mL. Besides, the MIC in test [2], in test [3], in test [4], in test [5], in test [6] and in test [7] was > 32 µg/mL each time. This compound also gave an MIC in test [8] of 32 µg/mL.
The compound `C#CCNc1nc(Cl)c(C#N)cc1C#N` had a CC50 in test [1] of 22.4 µg/mL (≈ 103 µM). Further, the MIC in test [2], in test [3], in test [4], in test [5], in test [6] and in test [7] was > 32 µg/mL in each case. Also, the MIC in test [8] was determined as 32 µg/mL (≈ 148 µM).
`C=C=CCN(C)Cc1cc2cc(OCc3ccccc3)ccc2n1C.O=C(O)C(=O)O` returned a CC50 in test [1] of 1.61 µg/mL. The MIC in test [2], in test [3], in test [4], in test [5], in test [6] and in test [7] was > 32 µg/mL each time. In addition, the MIC in test [8] was > 32 µg/mL.
In test [1], `COc1nc2n[nH]c(N)c2c(-c2ccccc2)c1C#N` had a CC50 of 5.47 µg/mL (≈ 20.6 µM). Moreover, the MIC in test [2], in test [3], in test [4], in test [5], in test [6] and in test [7] was > 32 µg/mL throughout. In test [8], the MIC was > 32 µg/mL.
`C#CCNc1nc(NCCCC2CCN(Cc3ccccc3)CC2)c(C#N)c(-c2ccccc2)c1C#N`: half-maximal cytotoxicity in test [1] (CC50) was put at 16 µg/mL (≈ 32.7 µM). The MIC is 32 µg/mL (≈ 65.5 µM) in test [2]; > 32 µg/mL in test [3]; > 32 µg/mL in test [4]; > 32 µg/mL in test [5]; > 32 µg/mL in test [6]; > 32 µg/mL in test [7]. In test [8], the MIC is > 32 µg/mL.
